Experimental data: patent publication US9187415B2, “Sulfonamides as HIV protease inhibitors” (Merck Canada Inc., priority 2010, dated 2015)
Where two headings read alike, the source gives them in different places.

Assays:
[1] = molecular target: T1, HIV-1 protease (wild type) (Human immunodeficiency virus type 1 group M subtype B, UniProt P04585); assay: Protease Inhibition Assay (Pepcleave), inhibition of microbial expressed HIV protease; format: biochemical
T1 construct: made in house; host or cells: Escherichia coli
Method: Assay for Inhibition of Microbial Expressed HIV Protease
Inhibition studies of the reaction of the protease (which was expressed in Eschericia coli) with a peptide substrate [Val-Ser-Gln-Asn-(betanaphtyl)Ala-Pro-Ile-Val]. The inhibitor is first preincubated with the HIV-1 protease (wild type) enzyme in assay buffer (50 mM sodium acetate, pH 5.5, 100 mM NaCl, and 0.1% BSA) for 30 minutes at room temperature. Substrate is added to 400 micromolar in a total volume of 80 microliters containing 10 picomolar HIV-1 protease and the reaction is incubated for 1 hour at 30° C. The reaction is quenched with the addition of 120 microliters of 10% phosphoric acid. The product formation is determined after separation of product and substrate on a Zorbax Eclipse XDB-C18 column connected to an Agilent 1100 high performance liquid chromatography system with fluorescence detection (excitation 270 nanometer and emission 330 nanometer). Alternatively, the inhibitor is preincubated with enzyme and substrate as described above, but in a total volume of 20 microliters containing 20 picomolar HIV-1 protease and the reaction is incubated for 1 hour at 30° C. The reaction is quenched with the addition of 30 microliters of 1 micromolar indinavir (indinavir is also used as an internal standard), and the product formation is determined after separation of product and substrate on a Zorbax Eclipse XDB-C18 column connected to an API 4000 mass spectrometer (Applied Biosystems) with multiple reaction monitoring (transitions were 644.5/428.9 and 615.4/422.2 (M1/M3) for product and indinavir respectively). The extent of inhibition of the reaction is determined from the peak area of the products. HPLC of the products, independently synthesized, provided quantitation standards and confirmation of the product composition.
Protease Inhibition Assay (“Pepcleave”) data were collected based on the wild-type HIV-1 protease enzyme. The assay monitors the cleavage of a 8-mer peptide (VSQN[β-Nal]PIV) where the tyrosine at P1 position is replaced by β-Naphthyl-alanine. Upon cleavage of the peptide by HIV-1 protease, the product is separated from substrate by HPLC column and detected at Ex.=270 nm/Em=330 nm.

[2] = test system: human immunodeficiency virus type 1; assay: Acute Infection Assay (Spread); format: cell-based, HIV-1; conditions: Human immunodeficiency virus 1; 10% FBS; mean of at least two independent experiments; read-out: Spread IC95
Description: Acute Infection Assay (“Spread”) data were generated in 10% FBS, and according to the methods disclosed by J. P. Vacca et al, “L-735,524: An orally bioavailable human immunodeficiency virus type 1 protease inhibitor,” Proc. Nati. Acad. Sci. USA, Vol. 91, pp. 4096-4100 (April 1994).

[3] = wild-type HIV-1 protease, mean of at least two independent experiments, read-out: Pepcleave Enzyme inhibition IC50

Structure (SMILES)	IC50 [1]	IC95 [2]	IC50 [1, 3]
COC(=O)N[C@H](C(=O)Nc1ccccc1CC[C@@H](CO)N(Cc1cn(C)nc1C)S(=O)(=O)c1ccc2ncsc2c1)C(c1ccccc1)c1ccccc1 [Example 11, N-{2-[(3S)-3-{(1,3-benzothiazol-6-ylsulfonyl)[(1,3-dimethyl-1H-pyrazol-4-yl)methyl]amino}-4-hydroxybutyl]phenyl}-Nα-(methoxycarbonyl)-β-phenyl-L-phenylalaninamide]	0.05 nM	683 nM	
COC(=O)N[C@H](C(=O)Nc1ccccc1CC[C@@H](CO)N(CC1CC(F)(F)C1)S(=O)(=O)c1ccc2ncsc2c1)C(c1ccccc1)c1ccccc1 [Example 12, N-{2-[(3S)-3-{(1,3-benzothiazol-6-ylsulfonyl)[(3,3-difluorocyclobutyl)methyl]amino}-4-hydroxybutyl]phenyl}-Nα-(methoxycarbonyl)-β-phenyl-L-phenylalaninamide]		1530 nM	0.9 nM
COC(=O)N[C@H](C(=O)Nc1cc(F)ccc1CC[C@@H](CO)N(CC1CC(F)(F)C1)S(=O)(=O)c1ccc2ncsc2c1)C(c1ccccc1)c1ccccc1 [Example 13, N-{2-[(3S)-3-{(1,3-benzothiazol-6-ylsulfonyl)[(3,3-difluorocyclobutyl)methyl]amino}-4-hydroxybutyl]-5-fluorophenyl}-Nα-(methoxycarbonyl)-β-phenyl-L-phenylalaninamide]		1180 nM	1.9 nM
COC(=O)N[C@@H](Cc1ccccc1Cl)C(=O)Nc1ccccc1CC[C@@H](CO)N(CCC(C)C)S(=O)(=O)c1ccc(N)cc1 [Example 14, N-{2-[(3S)-3-{[(4-aminophenyl)sulfonyl](3-rnethylbutyl)amino}-4-hydroxybutyl]phenyl}-2-chloro-Nα-(methoxycarbonyl)-L-phenylalaninamide]		1180 nM	1.2 nM
COC(=O)N[C@@H](Cc1ccccc1Cl)C(=O)Nc1ccccc1CC[C@@H](CO)N(Cc1cn[nH]c1)S(=O)(=O)c1ccc(N)cc1 [Example 15, N-{2[(3S)-3-{[(4-aminophenyl)sulfonyl](1H-pyrazol-4-ylmethyl)amino}-4-hydroxybutyl]phenyl}-2-chloro-Nα-(methoxycarbonyl)-L-phenylalaninamide]		2440 nM	1.8 nM
COC(=O)N[C@H](C(=O)Nc1cccnc1CC[C@@H](CO)N(Cc1cnoc1)S(=O)(=O)c1ccc2ncsc2c1)C(c1ccccc1)c1ccccc1 [Example 18, N-(2-{(3S)-3-[(1,3-benzothiazol-6-ylsulfonyl)(isoxazol-4-ylmethyl)amino]-4-hydroxybutyl}pyridin-3-yl)-Nα-(methoxycarbonyl)-β-phenyl-L-phenylalaninamide]		755 nM	2.3 nM
COC(=O)N[C@H](C(=O)Nc1cccnc1CC[C@@H](CO)N(Cc1cncnc1C)S(=O)(=O)c1ccc2ncsc2c1)C(c1ccccc1)c1ccccc1 [Example 19, N-[2[(3S)-3-{(1,3-benzothiazol-6-ylsulfonyl)[(4-methylpyrimidin-5-yl)methyl]amino)-4-hydroxybutyl]pyridin-3-yl]-Nα-(methoxycarbonyl)-β-phenyl-L-phenylalaninamide]		766 nM	4.2 nM
COC(=O)N[C@H](C(=O)Nc1cnccc1CC[C@@H](CO)N(Cc1cncnc1C)S(=O)(=O)c1ccc2ncsc2c1)C(c1ccccc1)c1ccccc1 [Example 20, N-{4-[(3S)-3-{(1,3-benzothiazol-6-ylsulfonyl)[(4-methylpyrimidin-5-yl)methyl]amino}-4-hydroxybutyl]pyridin-3-yl}-Nα-(methoxycarbonyl)-β-phenyl-L-phenylalaninamide]		2200 nM	3.5 nM
COC(=O)N[C@H](C(=O)Nc1c(SC[C@@H](CO)N(CCC(C)C)S(=O)(=O)c2ccc(N)cc2)cc[nH]c1=O)C(c1ccccc1)c1ccccc1 [Example 23, N-(4-{[(2R)-2-{[(4-aminophenyl)sulfonyl](3-methylbutyl)amino}-3-hydroxypropyl]sulfanyl}-2-oxo-1,2-dihydropyridin-3-yl)-Nα-(methoxycarbonyl)-β-phenyl-L-phenyl alaninamide]		2500 nM	0.06 nM
COC(=O)N[C@H](C(=O)Nc1cnccc1SC[C@@H](CO)N(CC(C)C)S(=O)(=O)c1ccc2ncsc2c1)C(c1ccccc1)c1ccccc1 [Example 24, N-[4-({(2R)-2-[(1,3-benzothiazol-6-ylsulfonyl)(2-methylpropyl)amino]-3-hydroxypropyl}sulfanyl)pyridin-3-yl]-Nα-(methoxycarbonyl)-β-phenyl-L-phenylalaninamide]		1120 nM	4.2 nM
[2H]C([2H])([2H])C([2H])(C([2H])([2H])[2H])C([2H])([2H])N([C@H](CO)CSc1ccncc1NC(=O)[C@@H](NC(=O)OC)C(c1ccccc1)c1ccccc1)S(=O)(=O)c1ccc2ncsc2c1 [Example 25, N-[4-({(2R)-2-[(1,3-benzothiazol-6-ylsulfonyl)(2-methylpropyld7)amino)-3-hydroxypropyl}sulfanyl)pyridin-3-yl]-Nα-(methoxycarbonyl)-β-phenyl-L-phenylalaninamide]		1150 nM	4.8 nM
COC(=O)N[C@H](C(=O)Nc1cnccc1SC[C@@H](CO)N(Cc1cn(C)nc1C)S(=O)(=O)c1ccc2ncsc2c1)C(c1ccccc1)c1ccccc1 [Example 26, N-(4-{[(2R)-2-{(1,3-benzothiazol-6-ylsulfonyl)[(1,3-dimethyl-1H-pyrazol-4-yl)methyl]amino)-3-hydroxypropyl)sulfanyl}pyridin-3-yl)-Nα-(methoxycarbonyl)-β-phenyl-L-phenylalaninamide]		1260 nM	0.4 nM
COC(=O)N[C@H](C(=O)Nc1cnccc1SC[C@@H](CO)N(Cc1cnoc1)S(=O)(=O)c1ccc2ncsc2c1)C(c1ccccc1)c1ccccc1 [Example 27, N-[4-({(2R)-2-[(1,3-benzothiazol-6-ylsulfonyl)(isoxazol-4-ylmethyl)amino]-3-hydroxypropyl}sulfanyl)pyridin-3-yl]-Nα-(methoxycarbonyl)-β-phenyl-L-phenylalaninamide]		1500 nM	6.9 nM
COC(=O)N[C@H](C(=O)Nc1ccccc1SC[C@@H](CO)N(CCC(C)C)S(=O)(=O)c1ccc(N)cc1)C(c1ccccc1)c1ccccc1 [Example 28, N-(2-{[(2R)-2-{[(4-aminophenyl)sulfonyl](3-methylbutyl)amino}-3-hydroxypropyl]sulfanyl}phenyl)-Nα-(methoxycarbonyl)-β-phenyl-L-phenylalaninamide]		194 nM	0.1 nM
COC(=O)N[C@H](C(=O)Nc1ccccc1S(=O)(=O)C[C@@H](CO)N(CCC(C)C)S(=O)(=O)c1ccc(N)cc1)C(c1ccccc1)c1ccccc1 [Example 29, N-(2-{[(2R)-2-{[(4-aminophenyl)sulfonyl)(3-methylbutyl)amino}-3-hydroxypropyl]sulfonyl}phenyl)-Nα-(methoxycarbonyl)-β-phenyl-L-phenyl alaninamide]		1250 nM	2.9 nM
COC(=O)N[C@H](C(=O)Nc1ccccc1[S+]([O-])C[C@@H](CO)N(CCC(C)C)S(=O)(=O)c1ccc(N)cc1)C(c1ccccc1)c1ccccc1 (stereo partly drawn) [Example 30, N-(2-{[(2R)-2-{[(4-aminophenyl)sulfonyl](3-methylbutyl)amino}-3-hydroxypropyl]sulfinyl}phenyl)-Nα-(methoxycarbonyl)-β-phenyl-L-phenyl alaninamide]		1780 nM	2.1 nM
